Like-named read-outs stand apart in the source and are kept apart here.
Legend:
Assay type in all cases: cell-based, human
[1] = system: HTT; test: HiBiT protein abundance assay, HTT; conditions: Homo sapiens, K562, 24 h, modified K562 cells
In short: (§1)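 Luminescent readout from lytic HiBiT/LgBiT complementation reports endogenous tagged protein level in engineered K562 cells. Compounds dosed 24 h, top 10 μM final, 3-fold steps, 10 points. IC50 is the concentration giving 50% of untreated-control abundance, from 4-parameter logistic fit.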

[2] = system: Target C; test: Splicing RT-qPCR panel, Target C canonical junction (CJ) mRNA; conditions: Homo sapiens, read-out: Target C IC50 (decrease in CJ mRNA levels)
Description: (§2) Compounds described herein were used to modulate RNA transcript abundance in cells. The expression of a target mRNA was measured by detecting the formation of an exon-exon junction in the canonical transcript (CJ). A compound mediated exon-inclusion event was detected by observing an increase in formation of a new junction with an alternative exon (AJ). Real-time qPCR assays were used to detect these splicing switches and interrogate the potency of various compounds towards different target genes. A high-throughput real time quantitative PCR (RT-qPCR) assay was developed to measure these two isoforms of the mRNA (CJ and AJ) for exemplary genes, such as HTT, SMN2, and MYB, together with a control housekeeping gene, GAPDH or GUSB or PPIA, used for normalization. Briefly, the A673 or K562 cell line was treated with various compounds described herein (e.g., compounds of Formula (I)). After treatment, the levels of the HTT, MYB, or SMN2 mRNA targets were determined from each sample of cell lysate by cDNA synthesis followed by qPCR.
(§3) The A673 cell line was cultured in DMEM with 10% FBS. Cells were diluted with full growth media and plated in a 96-well plate (15,000 cells in 100 ul media per well). The plate was incubated at 37° C. with 5% CO2 for 24 hours to allow cells to adhere. An 11-point 3-fold serial dilution of the compounds was made in DMSO then diluted in media in an intermediate plate. Compounds were transferred from the intermediate plate to the cell plate with the top dose at a final concentration of 10 uM in the well. Final DMSO concentration was kept at or below 0.25%. The cell plate was returned to the incubator at 37° C. with 5% CO2 for an additional 24 hours.
(§4) The K562 cell line was cultured in IMDM with 10% FBS. For K562, cells were diluted with full growth media and plated in either a 96-well plate (50,000 cells in 50 uL media per well) or a 384-well plate (8,000-40,000 cells in 45 uL media per well). An 11-point 3-fold serial dilution of the compounds were made in DMSO then diluted in media in an intermediate plate. Compound was transferred from the intermediate plate to the cell plate with the top dose at a final concentration of 10 uM in the well. Final DMSO concentration was kept at or below 0.25%. Final volume was 100 uL for 96-well plate and 50 uL for 384-well plate. The cell plate was then placed in an incubator at 37° C. with 5% CO2 for 24 hours.
(§5) The cells were then gently washed with 50 uL-100 uL cold PBS before proceeding to addition of lysis buffer. 30 uL-50 μL of room temperature lysis buffer with DNAse I (and optionally RNAsin) was added to each well. Cells were shaken/mixed thoroughly at room temperature for 5-10 minutes for lysis to take place and then 3 uL-5 μL of room temperature stop solution was added and wells were shaken/mixed again. After 2-5 minutes, the cell lysate plate was transferred to ice for RT-qPCR reaction setup. The lysates could also be frozen at −80° C. for later use.
(§6) In some cases, a direct lysis buffer was used. An appropriate volume of 3× lysis buffer (10 mM Tris, 150 mM NaCl, 1.5%-2.5% Igepal and 0.1-1 U/uL RNAsin, pH 7.4) was directly added to either K562 or A673 cells in media and mixed by pipetting 3 times. The plates were then incubated at room temperature with shaking/rocking for 20-50 minutes to allow for lysis to take place. After this time, the cell lysate plate was transferred to ice to set up for the RT-qPCR reactions. The lysates could also be frozen at −80° C. for later use.
(§7) To set up 10 uL RT-qPCR reactions, cell lysates were transferred to 384-well qPCR plates containing the master mix according to the table below. The plates were sealed, gently vortexed, and spun down before the run. The volumes were adjusted accordingly in some instances where the reaction was carried in 20 μL. The table below summarizes the components of the RT-qPCR reactions:
(§8) The RT-qPCR reaction was performed using a QuantStudio (ThermoFisher) under the following fast cycling conditions. […]

[3] = system: Target C; test: HiBiT protein abundance assay, Target C; conditions: Homo sapiens, K562, 24 h, modified K562 cells
In short: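 Knock-in HiBiT clones, 10000/well; 10-pt 3-fold titration, top 10 μM final; DMSO ≤0.25%; 24 h, 37 °C, 5% CO2. Lytic HiBiT luminescence readout. 4PL fit, IC50 = concentration giving 50% of untreated abundance.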

[4] = system: MYB; test: HiBiT protein abundance assay, MYB; conditions: Homo sapiens, K562, 24 h, modified K562 cells
In short: as §1

[5] = system: HTT; test: Splicing RT-qPCR assay, HTT mRNA canonical junction (CJ) and alternative junction (AJ); conditions: Homo sapiens; for AC50: increase in AJ mRNA
Description: as §2, §3, §4, §5, §6, §7, §8

[6] = system: SMN2; test: Splicing RT-qPCR panel, SMN2 canonical junction (CJ) mRNA; conditions: Homo sapiens, read-out: SMN2 IC50 (decrease in CJ mRNA levels)
Description: as §2, §3, §4, §5, §6, §7, §8

[7] = system: MYB; test: Splicing RT-qPCR assay, MYB mRNA canonical junction (CJ) and alternative junction (AJ); conditions: Homo sapiens; for AC50: increase in AJ mRNA
In short: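 A673 or K562 cells treated 24 h at 37 °C with 11-point 3-fold dilutions, top 10 uM, DMSO ≤0.25%. Lysates read by RT-qPCR for CJ and AJ isoforms, normalized to GAPDH, GUSB or PPIA; ΔΔCt vs DMSO converted to RQ, then percent response.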

[8] = RT-qPCR panel, canonical junction mRNA, compound concentration having 50% response in CJ decrease
[9] = RT-qPCR panel, canonical junction mRNA, compound concentration having 50% response in CJ decrease, read-out: HTT IC50 (decrease in CJ mRNA levels)
[10] = RT-qPCR panel, canonical junction mRNA, compound concentration having 50% response in CJ decrease, read-out: MYB IC50 (decrease in CJ mRNA levels)
[11] = 24 h, A673 or K562 cells, 24 hours treatment, RT-qPCR
[12] = 24 h, decrease in CJ mRNA, A673 or K562 cells, 24 hours treatment, RT-qPCR, read-out: MYB CJ IC50
[13] = gene panel, CJ qPCR, protocol of Example 142
[14] = gene panel, CJ qPCR, protocol of Example 142, read-out: HTT IC50 (decrease in CJ mRNA levels)
[15] = gene panel, CJ qPCR, protocol of Example 142, read-out: MYB IC50 (decrease in CJ mRNA levels)
[16] = 24 h, decrease in CJ mRNA, A673 or K562 cells, 24 hours treatment, RT-qPCR, read-out: HTT CJ IC50

IC50 ([1]; Table 13A) [µM]	IC50 [2, 8] [µM]	IC50 ([3]; Table 13A) [µM]	IC50 ([4]; Table 13A) [µM]	IC50 [5, 9] [µM]	IC50 [6, 8] [µM]	IC50 [7, 10] [µM]	IC50 [5, 16] [µM]	Structure (SMILES)	AC50 [5, 11] [µM]	IC50 [7, 12] [µM]	AC50 [7, 11] [µM]	IC50 ([1]; Table 13B) [µM]	IC50 [2, 13] [µM]	IC50 ([3]; Table 13B) [µM]	IC50 ([4]; Table 13B) [µM]	IC50 [5, 14] [µM]	IC50 [6, 13] [µM]	IC50 [7, 15] [µM]
1 to 10	> 10	> 10	1 to 10	0.1 to 1	1 to 10	> 10		c1cnn(-c2ccc(-c3cnc(N4CCNC5(CC5)C4)nn3)c3cn[nH]c23)c1 [Compound 577]										
0.1 to 1	1 to 10	1 to 10	1 to 10	0.1 to 1	1 to 10	1 to 10		c1nc2c(-c3cn[nH]c3)ccc(-c3cnc(N4CCN5CCCCC5C4)nn3)c2s1 (stereo not drawn) [Compound 566]										
0.1 to 1	1 to 10	0.1 to 1	1 to 10	0.1 to 1	0.1 to 1	1 to 10		CN1CCN(c2ncc(-c3ccc(-c4cn[nH]c4)c4ncsc34)nn2)CC1C1CC1 (stereo not drawn) [Compound 564]										
								COc1nc(-c2ccc(NC3CCNCC3)nn2)ccc1-c1cn[nH]c1 [Compound 924]				> 10	> 10	> 10	1 to 10	1 to 10	0.1 to 1	> 10
1 to 10	> 10	1 to 10	1 to 10	1 to 10	1 to 10	1 to 10	1 to 10	c1nc2c(-c3cn[nH]c3)ccc(-c3cnc(N4CCC(NC5CC5)C4)nn3)c2s1 (stereo not drawn) [Compound 416, N-cyclopropyl-1-[6-[4-(1H-pyrazol-4-yl)-1,3-benzothiazol-7-yl]-1,2,4-triazin-3-yl]py-rrolidin-3-amine]	1 to 10	1 to 10	> 10							
1 to 10	> 10	> 10	1 to 10	> 10	> 10	> 10	> 10	c1cnn(-c2ccc(-c3ccc(N4CCC(NC5CC5)C4)nn3)c3scnc23)c1 (stereo not drawn) [Compound 346, N-cyclopropyl-1-{6-[4-(pyrazol-1-yl)-1,3-benzothiazol-7-yl]pyridazin-3-yl}pyrrolidin-3-amine]	> 10	> 10	> 10							
1 to 10	> 10	1 to 10	1 to 10	> 10	1 to 10	> 10	> 10	CN(C)[C@H]1[C@@H]2CN(c3ccc(-c4ccc(-c5cn[nH]c5)c5cn[nH]c45)nn3)C[C@@H]21 [Compound 303]	> 10	> 10	> 10							
1 to 10	> 10	> 10	1 to 10	> 10	0.1 to 1	> 10	> 10	CN1C[C@@H]2CN(c3ccc(-c4ccc(-c5cn[nH]c5)c5cn[nH]c45)nn3)C[C@@H]2C1 [Compound 255]	> 10	> 10	1 to 10							
								COc1nc(-c2ccc(OC3CC4CC(F)(F)C(C3)N4)nn2)ccc1C1C=CC(F)=C1 (stereo not drawn) [Compound 971]				1 to 10	1 to 10	1 to 10	1 to 10	1 to 10	1 to 10	1 to 10

Structure (SMILES)	IC50 ([1]; Table 13A) [µM]	IC50 [2, 8] [µM]	IC50 ([3]; Table 13A) [µM]	IC50 ([4]; Table 13A) [µM]	IC50 [5, 9] [µM]	IC50 [6, 8] [µM]	IC50 [7, 10] [µM]	IC50 [5, 16] [µM]	AC50 [5, 11] [µM]	IC50 [7, 12] [µM]	AC50 [7, 11] [µM]	IC50 ([1]; Table 13B) [µM]	IC50 [2, 13] [µM]	IC50 ([3]; Table 13B) [µM]	IC50 ([4]; Table 13B) [µM]	IC50 [5, 14] [µM]	IC50 [6, 13] [µM]	IC50 [7, 15] [µM]
c1nc2c(-c3cn[nH]c3)ccc(-c3ccc(O[C@@H]4C[C@H]5COC[C@@H](C4)N5)nn3)c2s1 [Compound 357]	< 0.1	0.1 to 1	0.1 to 1	0.1 to 1	< 0.1	< 0.1	0.1 to 1		< 0.1	0.1 to 1	0.1 to 1							
CCN(c1ccc(-c2ccc(-c3cn[nH]c3)c3ncsc23)nn1)C1CCNCC1 [Compound 224]	1 to 10	> 10	1 to 10	0.1 to 1	> 10	1 to 10	1 to 10	> 10	> 10	1 to 10	> 10							
CN(c1ncc(-c2ccc(-c3cn[nH]c3)c3ncsc23)nn1)[C@@H]1CC2CCC[C@@H](C1)N2C [Compound 573]	1 to 10	> 10	1 to 10	1 to 10	1 to 10	> 10	> 10											
c1nc2c(-c3cn[nH]c3)ccc(-c3ccc(S[C@@H]4C[C@H]5CC[C@@H](C4)N5)nn3)c2s1 [Compound 200]	1 to 10	> 10	1 to 10	1 to 10	> 10	> 10	> 10	> 10	> 10	> 10	> 10							
CN1C[C@@H]2[C@H](C1)[C@H]2N(C)c1ccc(-c2ccc(-c3cn[nH]c3)c3cn[nH]c23)nn1 [Compound 302]	> 10	> 10	> 10	1 to 10	> 10	> 10	> 10	> 10	> 10	> 10	> 10							

Reference: patent publication US20240368163A1, “COMPOUNDS AND METHODS FOR MODULATING SPLICING” (REMIX THERAPEUTICS INC., priority 2021, published 2024)
